{"source": "patent US8158577B2", "about": "“Modulation of cartilage homeostasis by active domains of cell binding extracellular matrix molecules” (priority 2004, dated 2012)", "assay_type_in_all_cases": "cell-based, human", "key": {"K105 cells [1]": {"tested_on": "K105 cells", "assay": "Adhesion of K105 cells to chondroadherin in the presence of synthetic peptide (FIG. 3, 5A-5B, 13)", "details": "peptide 250 μg/ml", "protocol": "Human cells (K9) originating from a human chondrosarcoma were a kind gift from Drs. Sven Inerot and Anders Lindahl, The Salgrenska University Hospital Gothenburg, Sweden. The K9 cells were cultured in Dulbeccos Modified Eagle Medium: Nutrient Mixture F12 (DMEM/F12 1:1) with GLUTAMAX I, supplemented with 10% fetal calf serum, 25 μg/ml ascorbic acid, 50 IU of penicillin and 50 μg/ml streptomycin (Life Technologies, Inc.). A different human cells line (K105) originating from a human chondrosarcoma was a kind gift from Dr. Sven Inerot, The Salgrenska University Hospital, Gothenburg, Sweden. The K105 cells were cultured in a mix of 40% Dulbeccos Modified Eagle Medium, 40% Minimum Essential Media (MEM) alpha Medium, 10% Nutrient Mixture F1 supplemented with 100 nM hydrocortisone, 100 ng/ml insulin, 10% fetal calf serum, 25 μg/ml ascorbic acid, 50 IU of penicillin and 50 μg/ml streptomycin (Life Technologies, Inc.). To harvest cells, culture dishes were rinsed three times with Ca^2+/Mg^2+-free PBS and the cells were incubated with 0.5% trypsin and 1 mM EDTA for 5 min. Detached cells were suspended in PBS containing 1 mg/ml trypsin inhibitor (Sigma) and then washed in PBS. To remove membrane-bound collagens the cells were treated with collagenase 100 U/ml (CLSPA; Worthington Biochemical Corp., Lakewood, N.J.) in PBS, 30 min. 37° C. and then washed in PBS.\n(§1) Tissue culture 48-wells dishes (Nunclon, Nunc, Denmark) were coated overnight with 5 μg/ml chondroadherin in 4M Guanidine-HCl, 50 mM sodium acetate, pH 5.8, or for native protein in PBS. Alternatively coating was with 5 μg/ml collagen type II in PBS followed by after-coating with 0.5% BSA in PBS for 3 hours. Collagen type II was isolated from bovine nasal cartilage by pepsin digestion (11). Bacterially expressed chondroadherin was isolated as described above. Recombinant chondroadherin expressed in EBNA cell was cloned and purified as described elsewhere (8).\n(§2) To test cell binding, the chondrosarcoma cells or bovine chondrocytes were suspended in PBS containing 0.1% BSA, 25 U/ml collagenase and added to the wells (50,000/well), in the absence or presence of various peptide pools or the synthetic peptides (200, 100, 50, 25, 12.5 μg/ml). Non-adherent cells were removed after 1 hour and adhesion was determined by measuring lysosomal N-acetylglucosaminidase (12). Adhesion and spreading was visualized by light microscopy. In the time studies, k105 cells were allowed to adhere for 30 minutes, unbound cells were removed and medium without serum supplemented with or without peptides (250 μg/ml), β1 integrin antibody (clone P4C10, Gibco BRL), EDTA (5 mM) was added. Cell morphology was visualized by light microscopy after 1, 3 and 20 hours.\nStudy design: Tissue culture dishes (48-wells) were coated with 5 μg/ml chondroadherin expressed in E. coli and blocked for non-specific binding with BSA. […] were suspended in PBS containing 0.1% BSA, 25 U/ml collagenase and added to the wells (50,000/well) in the presence of synthetic peptide to be tested and allowed to adhere for 1 hour at 37° C. Nonadherent cells were removed by washing, and adhesion was determined by analyzing lysosomal hexosaminidase.\nA 12-mer peptide (1947.01) plus an N-terminal cysteine (CQLRGLRRWLEAK) (SEQ ID NO. 3) representing the candidate sequence identified by mass spectrometry were synthesized and its ability to inhibit cell adhesion was determined. Tissue culture dishes were coated with 5 μg/ml chondroadherin expressed in E. coli and blocked for non-specific binding with BSA. The cells were suspended in PBS containing 0.1% BSA, 25 U/ml collagenase and added to the wells (50,000/well) in the presence of synthetic peptide (200, 100, 50, 25, 12.5 μg/ml) and allowed to adhere for 1 hour at 37° C. Nonadherent cells were removed by washing, and adhesion was determined by analyzing lysosomal hexosaminidase. […]"}, "K105 cells [2]": {"tested_on": "K105 cells", "assay": "Adhesion of K105 cells to the coated cell binding peptides (FIG. 8)", "protocol": "Tissue culture dishes were coated with 33 μg/ml (20 µM) peptide solution. The cells (50,000/well) were suspended in PBS containing 0.1% BSA, 25 U/ml collagenase and added to the wells in the presence or absence of synthetic peptide (250 μg/ml) and allowed to adhere for 1 hour at 37° C. Nonadherent cells were removed by washing. Spreading was visualized by light microscopy."}, "K105 cells [3]": {"tested_on": "K105 cells", "assay": "Effect on K105 cells already adherent to chondroadherin, light microscopy time study (FIG. 7, 9, 10)", "details": "peptide 250 μg/ml added after 30 min adhesion; light microscopy after 1, 3 and 20 hours", "protocol": "as §2\n(§3) Tissue culture dishes were coated with 5 μg/ml chondroadherin expressed in E. coli and blocked for non-specific binding with BSA. The k105 cells were suspended in PBS containing 0.1% BSA, and added to the wells (50,000/well). Nonadherent cells were removed after 30 min by washing, plain medium without serum with or without peptides (250 μg/ml) was added and bound cells were visualized by light microscopy after 1, 3 and 20 hours.\nas §3, with “The” for “The k105”, “hours. […] The activity for integrin binding is located in the C-terminal eight residues of the sequence involving the WLEAK (SEQ ID No. 1) sequence.” for “hours.”\nas §3, with “washing, peptide, anti β1 antibody, 5 mM EDTA or” for “washing,”, “serum” for “serum with or without peptides (250 μg/ml)”, “1 and” for “1,”, “3” for “3 and 20”"}, "K105 cells [4]": {"tested_on": "K105 cells", "assay": "Adhesion of K105 cells to collagen type II in the presence of synthetic peptide (FIG. 5C-5D)", "details": "peptide 250 μg/ml, 1 hour at 37° C.", "protocol": "as §1\nTo test cell binding, the chondrosarcoma cells or bovine chondrocytes were suspended in PBS containing 0.1% BSA, 25 U/ml collagenase and added to the wells (50,000/well), in the absence or presence of various peptide pools or the synthetic peptides (200, 100, 50, 25, 12.5 μg/ml). Non-adherent cells were removed after 1 hour and adhesion was determined by measuring lysosomal N-acetylglucosaminidase (12). Adhesion and spreading was visualized by light microscopy. […]\nTissue culture dishes were coated with 5 μg/ml chondroadherin expressed in E. coli or collagen type II and blocked for non-specific binding with BSA. […] Spreading was visualized by light microscopy, and adhesion was determined by analyzing lysosomal hexosaminidase. Adhesion is expressed as number of cells where the data represent the average of two wells. […]"}}, "data": [{"substance": "H-CKFPTKRSKKAGRH-OH [SEQ ID No. 7]", "values": [{"measurement": "k105 cell adhesion to chondroadherin in the presence of peptide", "setting": "K105 cells [1]; 1 hour at 37° C.", "value": "increased"}, {"measurement": "k105 cell spreading on chondroadherin in the presence of peptide", "setting": "K105 cells [1]; 1 hour, light microscopy", "value": "increased"}, {"measurement": "adhesion and shape of k105 cells plated on the peptide", "setting": "K105 cells [2]; dishes coated with 33 μg/ml peptide, 1 hour at 37° C.", "value": "adhere and spread"}, {"measurement": "inhibition of k105 adhesion to the coated peptide by the same peptide in solution", "setting": "K105 cells [2]; peptide in solution 250 μg/ml", "value": "unable to inhibit adhesion"}, {"measurement": "spreading, migration and aggregation of k105 cells adherent to chondroadherin", "setting": "K105 cells [3]", "value": "spreading and migration increased"}, {"measurement": "k105 cell adhesion to collagen type II in the presence of peptide", "setting": "K105 cells [4]", "value": "not significantly affected"}]}]}
